Source: patent US5064813A, “Combination therapy for selected sex steroid dependent cancers” (priority 1989, dated 1991)

Legend:
serum testosterone = experiment: LHRH agonist-induced serum testosterone in the dog (RIA); type: in vivo; settings: dogs; for prevention of the LHRH agonist-induced rise in serum testosterone: per os three times daily with 50 μg LHRH-A daily (ketoconazole 200 mg; aminoglutethimide 125 mg plus hydrocortisone), first days of treatment, FIG. 2 and 3
Protocol: Eighteen mongrel dogs weighing between 20-30 kg were randomly divided into three groups. The animals were housed one per cage and fed Purina Dog Chow and tap water ad libitum.
The animals of group 1 were injected daily (at 0700h) with 50 μg of the LHRH agonist [D-Trp^6, des-Gly-NH2^10 ]LHRH ethylamide (LHRH-A). In group 2, the animals were also injected daily with 50 μg of LHRH-A and took in addition 200 mg of ketoconazole per os at 0700h, 1500h and 2300h. The animals of group 3 received daily 50 μg of LHRH-A and 125 mg of aminoglutethimide per os at 0700h, 1500h, 2300h plus 10 mg of hydrocortisone twice daily.
Blood samples were collected at 0700h, 0900h, 1100h and 1500h one day before treatment and every day during the treatment. Plasma was extracted with diethyl ether and testosterone was separated on LH-20 columns before RIA measurements.

advanced breast cancer = settings: cited from earlier work
testosterone levels = settings: rodents, in combination with chronic administration of Leuprolide; Santen et al. 1984; cited from earlier work

## CCC1(c2ccc(N)cc2)CCC(=O)NC1=O (stereo not shown) [aminoglutethimide, 3-(4-aminophenyl)-3-ethyl-2,6-piperidinedione]
Serum testosterone
  prevention of the LHRH agonist-induced rise in serum testosterone: almost completely prevented

## CC/C(=C(\c1ccccc1)c1ccc(OCCN(C)C)cc1)c1ccccc1 [Tamoxifen, (Z)-2-[4-(1,2-diphenyl-1-butenyl)phenoxy]-N,N-dimethylethanamine]
Advanced breast cancer; Tamoxifen alone, Mouridsen et al. 1978
  remission of advanced breast cancer, share of the patients treated: about 30%
Advanced breast cancer; combined use with the LH-RH agonist Buserelin, Klijn et al. 1984
  objective remission of breast cancer: 35%

## CCNC(=O)[C@@H]1CCCN1C(=O)[C@H](CCCNC(=N)N)NC(=O)[C@H](CC(C)C)NC(=O)[C@@H](Cc1c[nH]c2ccccc12)NC(=O)[C@H](Cc1ccc(O)cc1)NC(=O)[C@H](CO)NC(=O)[C@H](Cc1c[nH]c2ccccc12)NC(=O)[C@H](Cc1c[nH]cn1)NC(=O)[C@@H]1CCC(=O)N1 [[D-Trp^6 des-Gly-NH2^10]LHRH ethylamide, [D-Trp^6, des-Gly-NH2^10]LHRH ethylamide]
Serum testosterone; daily injection of 50 μg, day 19, FIG. 1
  level of serum testosterone on day 19: near-castration levels
Serum testosterone; daily injection of 50 μg, one to six days following start of treatment, FIG. 1
  increase in serum testosterone: approximately 500 % above control

## CC(=O)N1CCN(c2ccc(OCC3COC(Cn4ccnc4)(c4ccc(Cl)cc4Cl)O3)cc2)CC1 (stereo not shown) [ketoconazole]
Serum testosterone
  prevention of the LHRH agonist-induced rise in serum testosterone: almost completely prevented
Testosterone levels
  basal and Leuprolide stimulated testosterone levels: decreased
